Measured values from ChEMBL document CHEMBL4184139, “Adamantyl- and other polycyclic cage-based conjugates of desferrioxamine B (DFOB) for treating iron-mediated toxicity in cell models of Parkinson's disease” (Bioorg Med Chem Lett, 2017).
The source made the active and inactive calls. No cut-off for these calls is given here.

How the values were obtained:
[1] = Octanol-water partition coefficient, log P of the compound at 1 mg by RP-HPLC analysis; type: physicochemical
SK-N-BE(2)-M17 [2] = experiment: Cytoprotection against PQ-induced cell death in human SK-N-BE(2)-M17 cells assessed as increase in cell viability at 100 uM pretreated for 2 hrs followed by 1 mM PQ addition measured after 24 hrs by MTT assay; type: functional, cell-based
SK-N-BE(2)-M17 [3] = experiment: Cytoprotection against PQ-induced cell death in human SK-N-BE(2)-M17 cells assessed as increase in cell viability at 100 uM pretreated for 2 hrs followed by 1 mM PQ addition measured after 24 hrs by LDH assay; type: functional, cell-based
SK-N-BE(2)-M17 [4] = experiment: Cytoprotection against H2O2-induced cell death in human SK-N-BE(2)-M17 cells assessed as increase in cell viability at 100 uM pretreated for 2 hrs followed by 1 mM H2O2 addition measured after 24 hrs by MTT assay; type: functional, cell-based
SK-N-BE(2)-M17 [5] = experiment: Cytoprotection against H2O2-induced cell death in human SK-N-BE(2)-M17 cells assessed as increase in cell viability at 100 uM pretreated for 2 hrs followed by 1 mM H2O2 addition measured after 24 hrs by LDH assay; type: functional, cell-based
SK-N-BE(2)-M17 [6] = experiment: Cytoprotection against PQ-induced cell death in human SK-N-BE(2)-M17 cells assessed as increase in cell viability at 100 uM treated 2 hrs post 2 mM PQ treatment measured after 24 hrs by MTT assay; type: functional, cell-based
SK-N-BE(2)-M17 [7] = experiment: Cytoprotection against H2O2-induced cell death in human SK-N-BE(2)-M17 cells assessed as increase in cell viability at 100 uM treated 2 hrs post 0.8 mM H2O2 treatment measured after 24 hrs by MTT assay; type: functional, cell-based
SK-N-BE(2)-M17 [8] = experiment: Cytoprotection against PQ-induced cell death in human SK-N-BE(2)-M17 cells assessed as increase in cell viability treated 2 hrs post 2 mM PQ treatment measured after 24 hrs by MTT assay; type: functional, cell-based
SK-N-BE(2)-M17 [9] = experiment: Cytoprotection against PQ-induced cell death in human SK-N-BE(2)-M17 cells assessed as increase in cell viability at 100 uM treated post 200 uM Fecl3 and 1 mM PQ treatment measured after 24 hrs by MTT assay; type: functional, cell-based
Astrocyte [10] = experiment: Cytoprotection against H2O2-induced cell death in BSO pretreated C57BL6/J mouse brain primary astrocytes assessed as increase in cell viability at 10 uM pretreated for 2 hrs followed by H2O2 addition measured after 24 hrs by MTT assay; type: functional, cell-based
SK-N-BE(2)-M17 [11] = experiment: Cytotoxicity against human SK-N-BE(2)-M17 cells at 100 uM 24 hrs by MTT assay; type: cell-based; details: sk-n-be(2)-m17, 24 h
SK-N-BE(2)-M17 [12] = experiment: Cytotoxicity against human SK-N-BE(2)-M17 cells at 100 uM 24 hrs by LDH release assay; type: cell-based; details: sk-n-be(2)-m17, 24 h
[13] = Binding affinity to Fe3+ assessed as [M+H]+ adduct formation by LC-MS/MS analysis
[14] = Binding affinity to Fe3+ assessed as [M+2H]+ adduct formation by LC-MS/MS analysis
[15] = Binding affinity to Fe3+ assessed as change in retention time for compound-Fe3+ complex by RP-HPLC analysis relative to free ligand
SK-N-BE(2)-M17 [16] = experiment: Cytoprotection against PQ-induced cell death in human SK-N-BE(2)-M17 cells assessed as increase in cell viability at 100 uM treated 2 hrs post 2 mM PQ treatment measured after 24 hrs by LDH assay; type: functional, cell-based
SK-N-BE(2)-M17 [17] = experiment: Cytoprotection against H2O2-induced cell death in human SK-N-BE(2)-M17 cells assessed as increase in cell viability at 100 uM treated 2 hrs post 0.8 mM H2O2 treatment measured after 24 hrs by LDH assay; type: functional, cell-based
Astrocyte [18] = experiment: Cytoprotection against H2O2-induced cell death in BSO pretreated C57BL6/J mouse brain primary astrocytes assessed as increase in cell viability at 10 uM pretreated for 2 hrs followed by H2O2 addition measured after 24 hrs by LDH release assay; type: functional, cell-based
[19] = Binding affinity to Fe3+ in ferric ammonium citrate loaded C57BL6/J mouse brain primary astrocytes assessed as iron depletion at 100 uM treated 2 hrs post 125 uM FAC loading measured after 2 hrs by ICP-MS analysis; type: cell-based
SK-N-BE(2)-M17 [20] = experiment: Cytoprotection against PQ-induced cell death in human SK-N-BE(2)-M17 cells assessed as increase in cell viability at 100 uM treated post 200 uM Fecl3 and 1 mM PQ treatment measured after 24 hrs by LDH assay; type: functional, cell-based

SMILES	logP [1]	Activity (SK-N-BE(2)-M17 [2])	Activity (SK-N-BE(2)-M17 [3])	Activity (SK-N-BE(2)-M17 [4])	Activity (SK-N-BE(2)-M17 [5])	Activity (SK-N-BE(2)-M17 [6])	Activity (SK-N-BE(2)-M17 [7])	EC50 (SK-N-BE(2)-M17 [8])	Activity (SK-N-BE(2)-M17 [9])	Activity (Astrocyte [10])	Activity (SK-N-BE(2)-M17 [11])	Activity (SK-N-BE(2)-M17 [12])	Activity [13]	Activity [14]	Retention time [15]	Activity (SK-N-BE(2)-M17 [16])	Activity (SK-N-BE(2)-M17 [17])	Activity (Astrocyte [18])	Activity [19]	Activity (SK-N-BE(2)-M17 [20])
CC(=O)N(O)CCCCCNC(=O)CCC(=O)N(O)CCCCCNC(=O)CCC(=O)N(O)CCCCCNC(=O)C12CC3CC(CC1C3)C2	0.98	Active	Active	Active	Active	Active	Active	30 µM	Active	Active	Non-Toxic	Non-Toxic	Active	Active	0.48 min					
CCCCC[C@]12CC[C@@H](CC1)[C@@H](C(=O)NCCCCCN(O)C(=O)CCC(=O)NCCCCCN(O)C(=O)CCC(=O)NCCCCCN(O)C(C)=O)C2 (relative stereo)	2.82	Active	Active	Active	Active	Active	Active	10 µM		Active	Non-Toxic	Non-Toxic	Active	Active	3.67 min	Active	Active	Active	Active	
CC(=O)N(O)CCCCCNC(=O)CCC(=O)N(O)CCCCCNC(=O)CCC(=O)N(O)CCCCCNC(=O)C12CC3CC(CC(Cl)(C3)C1)C2	1.84	inactive	inactive	inactive	inactive	inactive	inactive		Active	Active	Non-Toxic	Non-Toxic	Active	Active	0.83 min	inactive	inactive	Active		
CC(=O)N(O)CCCCCNC(=O)CCC(=O)N(O)CCCCCNC(=O)CCC(=O)N(O)CCCCCNC(=O)C1CC2CCCC(C2)C1 (stereo not given)	1.87	inactive	inactive	inactive	inactive	inactive	inactive		Active	Active	Non-Toxic	Non-Toxic	Active	Active	0.65 min	inactive	inactive	Active		Active
CC(=O)N(O)CCCCCNC(=O)CCC(=O)N(O)CCCCCNC(=O)CCC(=O)N(O)CCCCCNC(=O)CC12CC3CC(C)(CC(C)(C3)C1)C2	2.17	Active	Active	Active	Active	Active		5.8 µM	Active	Active	Non-Toxic	Non-Toxic	Active	Active	1.54 min			Active	Active	Active
